We go through two compounds from article PMC10872270 (Cell reports, 2023).

The subject of experiment [1] is MDA-MB-453 tumors. The experiment can be described thus: RNA-seq of MDA-MB-453 xenograft tumors. Type of experiment: in vivo, mice. To be noted: MDA-MB-453 xenograft tumors vs vehicle.
Experiment [2] relates to AR-target genes FKBP5, STEAP4, and TMPRSS2. The experiment can be described thus: AR-target gene expression by real-time PCR in MDA-MB-453 cells. The format is cell-based. To be noted: 16–20 hours. In general terms: Real-time PCR tracks product formation cycle by cycle.
The subject of experiment [3] is patients expressing AR-V7. The following applies: clinical trial; alone or in combination with PI3K inhibitor taselisib; cited from earlier work.
The subject of experiment [4] is MDA-MB-453 xenograft. To be noted: female mice supplemented with DHT; cited from earlier work.
Experiment [5] deals with UT-1355 PDX. The experiment can be described thus: UT-1355 TNBC PDX orthotopic xenograft. Type of experiment: in vivo. The following applies: female NSG mice; expresses AR-FL and AR-V7.
Experiment [6] concerns MDA-MB-453 cells. Kind of experiment: SRB proliferation assay in growth medium. The following applies: parental MDA-MB-453 cells, seven days. Type of experiment: cell-based. In general terms: In SRB staining, fixed cells bind dye roughly in proportion to their protein.
In experiment [7] the test system is MDA-MB-453-AR-V7 cells. Kind of experiment: SRB proliferation assay in growth medium. Type of experiment: cell-based. The following applies: seven days.
Experiment [8] has as its system FKBP5. The experiment can be described thus: R1881-induced FKBP5 expression in MDA-MB-453 cells. To be noted: 0.1 nM R1881, 3 μM, 24 hours.
Experiment [9] relates to STAT1 phosphorylation. The experiment can be described thus: Interferon α-induced STAT1 phosphorylation in MDA-MB-453 cells. Type of experiment: cell-based. To be noted: 3 μM pretreated for 24 hours, interferon α 30 minutes.
In experiment [10] the target is T1, AR (Homo sapiens, UniProt P10275).
T1 sequence (P10275 1-920): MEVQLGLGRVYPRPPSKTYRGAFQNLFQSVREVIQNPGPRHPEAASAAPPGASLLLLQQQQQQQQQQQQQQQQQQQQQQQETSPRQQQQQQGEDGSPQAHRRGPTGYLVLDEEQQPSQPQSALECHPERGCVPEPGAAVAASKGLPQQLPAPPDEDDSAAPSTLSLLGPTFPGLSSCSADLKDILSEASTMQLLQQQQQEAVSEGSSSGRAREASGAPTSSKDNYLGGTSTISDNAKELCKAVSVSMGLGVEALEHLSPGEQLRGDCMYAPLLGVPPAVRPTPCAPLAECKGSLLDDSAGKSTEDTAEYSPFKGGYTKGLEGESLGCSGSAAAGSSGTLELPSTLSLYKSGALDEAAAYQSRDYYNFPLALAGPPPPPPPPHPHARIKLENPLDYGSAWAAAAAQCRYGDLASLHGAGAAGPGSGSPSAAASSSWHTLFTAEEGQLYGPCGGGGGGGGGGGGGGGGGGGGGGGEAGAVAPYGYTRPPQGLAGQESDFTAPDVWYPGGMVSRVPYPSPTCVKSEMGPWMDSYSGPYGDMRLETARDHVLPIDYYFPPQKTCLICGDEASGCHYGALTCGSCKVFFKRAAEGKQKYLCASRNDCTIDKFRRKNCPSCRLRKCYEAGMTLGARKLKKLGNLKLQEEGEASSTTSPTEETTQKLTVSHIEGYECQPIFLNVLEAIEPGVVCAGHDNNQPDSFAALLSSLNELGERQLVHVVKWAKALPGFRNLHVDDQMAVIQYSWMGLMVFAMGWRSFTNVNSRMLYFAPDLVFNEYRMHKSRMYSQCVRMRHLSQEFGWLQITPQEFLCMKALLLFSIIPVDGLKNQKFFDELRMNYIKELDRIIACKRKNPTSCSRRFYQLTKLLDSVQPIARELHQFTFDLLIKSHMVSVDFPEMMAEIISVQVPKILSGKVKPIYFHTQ
The following applies: HEK-293 cells.

Consider `CNC(=O)c1ccc(N2C(=S)N(c3ccc(C#N)c(C(F)(F)F)c3)C(=O)C2(C)C)cc1F` [enzalutamide], for which the “differentially expressed genes in treated tumors” value in experiment [1] was “eight”. In [2], the “R1881-stimulated expression of FKBP5” value is “inhibited”, the “R1881-stimulated expression of STEAP4” value is recorded as “inhibited” and the “R1881-stimulated expression of TMPRSS2” value is “inhibited”. The “effect in patients expressing AR-V7” value in [3] was “failed to have an effect”. Also, the MDA-MB-453 xenograft growth entry in experiment [4] was “inhibits”. Also, in experiment [5], the “growth of UT-1355 PDX” value is “modestly effective”.
As to `N#CC[C@H](C1CCCC1)n1cc(-c2ncnc3[nH]ccc23)cn1` [ruxolitinib], the cell proliferation entry in experiment [6] and in experiment [7] was “comparable inhibition” throughout. Besides, the “R1881-induced expression of FKBP5” value in [8] is “completely inhibited”. For the same compound, the “interferon-α-induced phosphorylation of STAT1” value in [9] is “completely inhibited”. In addition, the “R1881-dependent AR transactivation in the absence of STAT1” value in [10] is “no effect”. Also, the “STAT1-dependent increase in AR transactivation” value in [10] (0.1 μg STAT1) is “inhibited”.
